Assay results as given in patent publication US12685733B2, “Indole molecules and use thereof in the inhibition of DNA polymerases” (BioVentures, LLC, priority 2019, dated 2026).

What was measured:
hpol κ = target: T1, hpol κ (Homo sapiens, UniProt Q9UBT6); assay: Fluorescence-based (TAMRA/BHQ strand displacement) DNA polymerase activity assay; details: for activity at 40 µM: read-out: % Activity Mean (hpol κ activity)
T1 sequence (Q9UBT6 19-526): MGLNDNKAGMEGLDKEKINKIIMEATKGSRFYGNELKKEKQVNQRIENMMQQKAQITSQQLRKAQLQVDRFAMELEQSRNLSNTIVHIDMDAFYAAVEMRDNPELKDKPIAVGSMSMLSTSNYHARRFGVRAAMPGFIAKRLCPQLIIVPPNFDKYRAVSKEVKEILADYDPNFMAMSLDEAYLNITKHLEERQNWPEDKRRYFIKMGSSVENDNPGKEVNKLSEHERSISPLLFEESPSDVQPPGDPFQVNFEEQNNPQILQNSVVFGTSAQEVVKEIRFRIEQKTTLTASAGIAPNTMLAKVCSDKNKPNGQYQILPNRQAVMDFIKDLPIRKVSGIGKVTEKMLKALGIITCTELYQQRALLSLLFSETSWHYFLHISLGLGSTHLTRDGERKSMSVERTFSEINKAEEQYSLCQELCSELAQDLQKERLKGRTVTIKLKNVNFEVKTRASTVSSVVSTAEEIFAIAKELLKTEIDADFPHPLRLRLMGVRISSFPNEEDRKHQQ

recombinant hpol κ = target: T2, recombinant hpol κ (Homo sapiens, UniProt Q9UBT6); details: earlier screen; cited from earlier work
T2 sequence (Q9UBT6 1-870): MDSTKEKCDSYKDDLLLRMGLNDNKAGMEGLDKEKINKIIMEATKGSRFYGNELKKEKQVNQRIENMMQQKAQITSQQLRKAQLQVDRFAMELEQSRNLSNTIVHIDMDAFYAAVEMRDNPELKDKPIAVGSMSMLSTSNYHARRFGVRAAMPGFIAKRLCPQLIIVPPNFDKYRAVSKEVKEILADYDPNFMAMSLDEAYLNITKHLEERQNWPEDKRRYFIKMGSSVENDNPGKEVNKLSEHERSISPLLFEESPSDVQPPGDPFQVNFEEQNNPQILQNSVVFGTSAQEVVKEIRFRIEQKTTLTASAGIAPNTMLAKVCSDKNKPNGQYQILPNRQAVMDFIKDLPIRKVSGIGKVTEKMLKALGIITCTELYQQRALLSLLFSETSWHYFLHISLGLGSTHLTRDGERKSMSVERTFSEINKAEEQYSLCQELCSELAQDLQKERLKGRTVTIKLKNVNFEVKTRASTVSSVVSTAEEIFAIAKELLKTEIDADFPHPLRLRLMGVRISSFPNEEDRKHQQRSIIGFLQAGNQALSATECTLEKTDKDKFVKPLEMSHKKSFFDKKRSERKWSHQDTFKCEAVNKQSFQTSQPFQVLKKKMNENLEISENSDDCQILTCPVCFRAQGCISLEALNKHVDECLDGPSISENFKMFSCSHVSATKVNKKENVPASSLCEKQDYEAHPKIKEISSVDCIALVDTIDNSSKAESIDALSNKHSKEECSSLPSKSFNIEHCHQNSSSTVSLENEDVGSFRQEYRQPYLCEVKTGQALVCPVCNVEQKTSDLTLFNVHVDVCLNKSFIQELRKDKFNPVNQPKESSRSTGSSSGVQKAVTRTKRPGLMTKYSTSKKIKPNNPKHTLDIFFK

[1] = tested on: hpol κ-deficient HAP-1 cells; assay: Clonogenic survival assay; format: cell-based, human; details: 250 μM TMZ
Experimental: (§1) HAP-1 and hpol κ^KO cells were purchased from Horizons Discovery Group LLC (Cambridge, UK). The company generated the Hap1 cells using CRISPR-Cas9 technology and the elimination of kappa expression was confirmed by Sanger sequence genome editing. We further confirmed the elimination of hpol κ protein expression by Western blotting (data not shown). Hap1 cells were cultured in Iscove's modified Dulbecco's medium (IMDM; Invitrogen, CA, USA) supplemented with 10% (v/v) fetal bovine serum (FBS; Atlas Biologicals, CO, USA) and 1% (v/v) antibiotic/antimycotic solution (Sigma-Aldrich, MO, USA).T98G cells were purchased from ATCC (American Type Culture Collection, VA, USA). T98G cells were cultured in MEM (Minimum Essential Medium) (Invitrogen, CA, USA) supplemented with 10% (v/v) FBS (Fetal Bovine Serum, Atlas Biologicals, CO, USA) and antibiotic/antimycotic solution (1%, v/v) (Sigma-Aldrich, MO, USA). NT2 cells were kindly provided by Dr. Michael Borrelli (University of Arkansas for Medical Sciences, AR, USA). NT2 cells were cultured in DMEM/F12 (Dulbecco's Modified Eagle Medium) supplemented with 10% (v/v) FCS (Fetal Calf Serum) and antibiotic/antimycotic solution (1%) (Sigma-Aldrich, MO, USA).
(§2) To measure the clonogenic ability, cells were plated (500 cells per well) in 6-well dishes. In the case of HAP-1 cells, cells were treated the following day after plating, with temozolomide (TMZ) (0, 1, 5, 50, 125 and 250 μM) alone or in combination with UAMS-48 (0.1 and 0.5 μM) for 1 hour. In the case of T98G and NT2 cells, treatment was done on the following day of plating, with increasing concentrations of TMZ alone or in combination with UAMS-48 (50 nM) for 3 hrs. T98G and NT2 cells were treated with increasing concentrations of UAMS-48 for 3 hrs. After treatment, cells were cultured in fresh IMDM supplemented with 10% FBS for 10 days. The colonies were gently washed with 1×PBS, fixed with 3.7% (v/v) formaldehyde for 20 mins at RT and stained with crystal violet solution (Sigma-Aldrich, MO, USA) for 30 mins at RT.
(§3) The fixed crystal-violet stained colonies in each 6-well plate were examined under an EVOS XL Core imaging system (Thermo Fisher Scientific) under bright-field, and the colonies were inspected manually. […] Color images of each 6-well plate were captured and opened for processing using the Fiji version of the freely available software ImageJ. Setting the appropriate threshold for counting colonies for each cell type, corresponding to the respective radii calculated previously, the colonies were counted using the Colony Area plugin of ImageJ. Manual counting was performed on a few wells picked randomly, and the colony count so obtained was tallied with the number obtained using ImageJ, to ensure they matched reasonably. All experiments were performed in triplicate, and the colony number for each well was expressed as the mean (±standard deviation). The results were plotted to generate a dose response curve for TMZ treatment using the software Graphpad Prism, where the mean number of colonies was plotted along the Y-axis, and the TMZ concentration along the X-axis. Bar charts comparing the mean number of colonies as a function of the various conditions were also plotted for both cell types. Combination index values were calculated using the Chou-Talalay method (Chou 2010).

[2] = tested on: hpol κ-proficient HAP-1 cells; assay: Clonogenic survival assay; format: cell-based, human; details: 250 μM TMZ alone
Experimental: as §1, §2, §3

| Structure (SMILES) | activity at 40 µM (hpol κ) | other results |
| --- | --- | --- |
| Cc1c(C=C2C(=O)NC(=S)NC2=O)c2ccccc2n1C(=O)c1cccc2ccccc12 [IBA-26] | 86.4% |  |
| O=C1NC(=S)NC(=O)C1=Cc1cn(C(=O)c2cccc3ccccc23)c2ccc(Cl)cc12 [IBA-27] | 85.8% |  |
| O=C1NC(=S)NC(=O)C1=Cc1cn(Cc2ccc3ccccc3c2)c2ncc(Cl)cc12 [IBA-28] | 84.4% |  |
| O=C1NC(=S)NC(=O)C1=Cc1cn(C(=O)c2cccc3ccccc23)c2ccccc12 [IBA-29] | 83.3% |  |
| O=C1NC(=S)NC(=O)C1=Cc1cn(C(=O)c2ccc3ccccc3c2)c2ccccc12 [IBA-30] | 81.4% |  |
| O=C1NC(=O)C(=Cc2cn(Cc3ccc4ccccc4c3)c3ccc(Cl)cc23)C(=O)N1 [IBA-31] | 67.6% |  |
| O=C1NC(=S)NC(=O)C1=Cc1cn(Cc2ccc3ccccc3c2)c2ccc(Cl)cc12 [IBA-32] | 56.5% | turnover number (kcat), hpol κ-catalyzed dTTP insertion (hpol κ; steady-state kinetics with varying inhibitor concentration): it was the kcat and not the KdNTP that was altered |
| O=C1NC(=O)C(=Cc2cn(Cc3ccc4ccccc4c3)c3ccccc23)C(=O)N1 [IBA-33] | 17.9% |  |
| O=C1NC(=S)NC(=O)C1=Cc1cn(Cc2cccc3ccccc23)c2ccc(Br)cc12 [IBA-34] | 3.7% |  |
| CC(C)c1ccc2c(c1)c(SC(C)(C)C)c(CC(C)(C)C(=O)O)n2Cc1ccc(Cl)cc1 [MK-886] |  | IC50 for inhibition of recombinant hpol κ (recombinant hpol κ): tens of micromolar |
| Cn1nnc2c(C(N)=O)ncn2c1=O [TMZ, temozolomide, reference compound] |  | colonies formed relative to untreated cells [1]: less than 50%; colonies formed relative to control [2]: ~ 75% |
| CCOc1nc2cccc(C(=O)OC(C)OC(=O)OC3CCCCC3)c2n1Cc1ccc(-c2ccccc2-c2nn[nH]n2)cc1 (centres unmarked) [candesartan, candesartan cilexetil] |  | IC50 for inhibition of recombinant hpol κ (recombinant hpol κ): tens of micromolar |
